In US20060058268A1, “Compounds and methods for treating diabetic vascular diseases” (priority 2004, published 2006) one finds IC50 and inhibition data, which are given here for 12 molecules.

For one test, the system named is VCAM-1. The test can be described thus: VCAM-1 assay with ELISA readout (Examples 5-6). The test is classed as cell-based. Particulars: 16 h, TNF added with compound, incubated overnight (approximately 16 hours). On the procedure: Two to four confluent P150 plates are trypsinized and the cells transferred to a 50 mL conical centrifuge tube. The cells are pelleted, resuspended, and counted using the trypan blue exclusion method.
Cells are resuspended at a concentration of 36,000 cells/mL and 1 mL is aliquoted per well.
Cells are split into 24 well tissue culture plates. The cells in each well should be approximately 90-95% confluent by the following day. Cells should not be older than passage 8.
Compounds are initially screened at 50 μM and 10 μM. A 50 mM stock solution for each compound is prepared in culture medium. The stock solution is diluted to 5 mM and 1 mM. When 10 μL of the 5 mM solution is added to the well (1 mL medium/well), the final concentration will be 50 μM. Adding 10 μL of the 1 mM solution to the well will give a final concentration of 10 μM.
Compounds which will not go into solution in culture medium are resuspended in DMSO at a concentration of 25 mM. The stock solution is then diluted to the final concentration in culture medium. The old medium is aspirated and 1 mL of the new medium with the compound is added. For example, if the final concentration is 50 µM, the 2 μL of the 25 mM stock is added per mL of culture medium. The […] solution is diluted for lower concentrations.
The compounds are added to the plate (each compound is done in duplicate). One plate is done for VCAM expression and one plate is done for ICAM expression.
Immediately after the compounds are added, TNF is added to each well. 100 units/mL TNF is usually added to each well. Since each lot of TNF varies in the number of units, each new lot is titrated to determine the optimum concentration. Therefore this concentration will change. If 100 units/mL is being used, dilute the TNF to 10 units/μL and add 10 μL to each well.
The plates are incubated at 37° C., 5% CO2 overnight (approximately 16 hours). The next day the plates are checked under the microscope to see if there are any visual signs of toxicity. Records are made of any cell death, debris, or morphology changes, as well as insoluble compounds (particulate or turbity).
In order to assess MCP-1, the media (500 μL) is saved and frozen at −70° C. Wash cells once with roughly 1 ml/well of Hanks Balance Salt Solution (HBSS) or PBS. Gently empty the wash solution and then tap the plate onto paper towels. Add either 250 μL/well of HBSS+5% FCCS to the plank (no primary antibody wells) or 250 μL/well of primary antibody diluted in HBSS+5% FCS. Incubate for 30 minutes at 37° C. Wash the wells twice with 0.5 mL/well HBSS or PBS and gently tap the plates onto paper towels after the last wash. Add 250 μL/well of HRP-conjugated second antibody diluted in HBSS+5% FCS to every well including the blank wells (no primary antibody). Incubate at 37° C. for 30 minutes. Wash the wells four times with 0.5 mL/well HBSS or PBS and gently tap the plates onto paper towels after the last wash. Add 250 μL/well of substrate solution. Incubate at room temperature in the dark until there is adequate color development (blue). Note the length of time incubation was performed (typically 15-30 minutes). Add 75 μL/well stopper solution (8N sulfuric acid), and read at 450 nm.
In general terms: An ELISA detects its analyte on a solid surface through an enzyme-linked reagent.
As usually defined, the IC50 is the concentration needed to halve the response being measured. Regarding `CC(C)(Sc1cc(C(C)(C)C)c(O)c(C(C)(C)C)c1)Sc1cc(C(C)(C)C)c(OC(=O)c2ccc([N+](=O)[O-])o2)c(C(C)(C)C)c1` [2-Furancarboxylic acid, 5-nitro-, 4-[[1-[[3,5-bis(1,1-dimethylethyl)-4-hydroxyphenyl]thio]-1-methylethyl]thio]-2,6-bis(1,1-dimethylethyl)phenyl ester], the IC50 was determined as 25 µM.
The same measure, in the same setting: the result for `CN(C)c1ccc(CCOc2c(C(C)(C)C)cc(SC(C)(C)Sc3cc(C(C)(C)C)c(O)c(C(C)(C)C)c3)cc2C(C)(C)C)cc1` [Phenol, 4-[[1-[[4-[2-[4-(dimethylamino)phenyl]ethoxy]-3,5-bis(1,1-dimethylethyl)phenyl]thio]-1-methylethyl]thio]-2,6-bis(1,1-dimethylethyl)-] reads 55 µM; that for `CC(C)(Sc1cc(C(C)(C)C)c(O)c(C(C)(C)C)c1)Sc1cc(C(C)(C)C)c(OCC(=O)N[C@@H](CCC(=O)O)C(=O)O)c(C(C)(C)C)c1` [Glutamic acid, N-[[4-[[1-[[3,5-bis(1,1-dimethylethyl)-4-hydroxyphenyl]thio]-1-methylethyl]thio]-2,6-bis(1,1-dimethylethyl)phenoxy]acetyl]-], 75 µM; that for `CC(C)(Sc1cc(C(C)(C)C)c(O)c(C(C)(C)C)c1)Sc1cc(C(C)(C)C)c(OC(=O)CCCC(=O)O)c(C(C)(C)C)c1` [Pentanedioic acid mono[4-[[1-[[3,5-bis(1,1-dimethylethyl)-4-hydroxyphenyl]thio]-1-methylethyl]thio]-2,6-bis(1,1-dimethylethyl)phenyl] ester], 8.7 µM.

The same test, now with this note: TNF added with compound, incubated overnight (approximately 16 hours).
As for `COc1c(C(C)(C)C)cc(SCc2ccc(C(F)(F)F)cc2)cc1C(C)(C)C` [2,6-di-tert-butyl-1-methoxy-4-thio(4′-trifluoromethyl)benzyl)benzene], the IC50 is more than 50 µM.
Same read-out and setting: the same measure for `CC(C)(Sc1cc(C(C)(C)C)c(O)c(C(C)(C)C)c1)Sc1cc(C(C)(C)C)c(OCC2OC2CO)c(C(C)(C)C)c1` (stereo not drawn) [Oxiranemethanol, 3-[[4-[[1-[[3,5-bis(1,1-dimethylethyl)-4-hydroxyphenyl]thio]-1-methylethyl]thio]-2,6-bis(1,1-dimethylethyl)phenoxy]methyl]-]: more than 100 µM; for `CC(=O)OC(C)(C)CSc1cc(C(C)(C)C)c(O)c(C(C)(C)C)c1` [2,6-di-tert-butyl-4-thio(2′-acetoxy,2′-methylpropyl)phenol]: 50 µM; for `CC(C)(C)c1cc(SCc2ccc(F)cc2)cc(C(C)(C)C)c1O` [2,6-di-tert-butyl-4-thio(4′-fluorobenzyl)phenol]: 35 µM.
Take `CC1(C)OC2OC(COc3c(C(C)(C)C)cc(SC(C)(C)Sc4cc(C(C)(C)C)c(O)c(C(C)(C)C)c4)cc3C(C)(C)C)C3OC(C)(C)OC3C2O1` [α-D-Galactopyranose, 6-O-[4-[[1-[[3,5-bis(1,1-dimethylethyl)-4-hydroxyphenyl]thio]-1-methylethyl]thio]-2,6-bis(1,1-dimethylethyl)phenyl]-1,2:3,4-bis-O-(1-methylethylidene)]: the IC50 came to 45 µM.
In the case of “Pentanedioic acid, (1-methylethylidene)bis(thio{2,6-bis(1,1-dimethylethyl)-4,1-phenylene)]ester”, the IC50 was more than 50 µM.

The same test, now with this note: at 50 μM.
What is called inhibition is the share of the control response that was lost under treatment. A high value points to strong suppression. In the case of `CC(C)(Sc1cc(C(C)(C)C)c(O)c(C(C)(C)C)c1)Sc1cc(C(C)(C)C)c(OC[C@H]2O[C@@H](O)[C@H](O)[C@@H](O)[C@@H]2O)c(C(C)(C)C)c1` [β-D-Glucopyranose, 6-O-[4-[[1-[[3,5-bis(1,1-dimethylethyl)-4-hydroxyphenyl]thio]-1-methylethyl]thio]-2,6-bis(1,1-dimethylethyl)phenyl]-], the inhibition at 50 µM is 30%.
The molecule `CN(C)CCCOc1c(C(C)(C)C)cc(SC(C)(C)Sc2cc(C(C)(C)C)c(O)c(C(C)(C)C)c2)cc1C(C)(C)C` [Phenol, 4-[[1-[[4-[3-(dimethylamino)propoxy]-3,5-bis(1,1-dimethylethyl)phenyl]thio]-1-methylethyl]thio]-2,6-bis(1,1-dimethylethyl)-] showed an inhibition at 50 µM of 22%.
